Structures can show the parent of a compound that is named as a salt.

The test system of series [1] is human lung carcinoma H1299 cells. On the set-up: method as in PMID 25738799. Conditions: cited from earlier work.
The subject of series [2] is human lung carcinoma A549 cells. The arrangement: method as in PMID 25738799. Conditions: cited from earlier work.
In series [3] the test system is Lewis lung carcinoma cell xenograft tumor. The arrangement: method as in PMID 25738799. To be noted: C57BL/6 mice bearing a Lewis lung carcinoma cell xenograft tumor; cited from earlier work.
The test system of series [4] is ascites form of mouse Ehrlich carcinoma cells. The experiment in a line: Cytotoxic activity (MTT) against the ascites form of mouse Ehrlich carcinoma cells. Format: cell-based. Conditions: ascites form of mouse Ehrlich carcinoma cells, MTT, incubated over night. As for the experimental part:
(§1) The spleenocytes from CD-1 line mice were used. The spleen was isolated from mice and homogenized. The spleenocytes were washed thrice and resuspended with RPMI-1640 medium contained gentamicine 8 μg/mL (Biolot, Saint Petersburg, Russia). The museum tetraploid strain of murine ascites Ehrlich carcinoma cells from the All-Russian cancer center RAMS (Moscow, Russia) was used. The cells of the ascites Ehrlich carcinoma were separated from ascites, which were collected on day 7 after inoculation in mouse CD-1 line. The cells were washed of ascites thrice and then resuspended in liquid media DMEM with L-Glutamine (Biolot, Saint Petersburg, Russia).
(§2) The solutions of tested substances in different concentrations (20 µL) and cell suspension (200 µL) were added in wells of 96-well plate and incubated over night at 37 °C and 5% CO2. After incubation the cells were sedimented by centrifugation, 200 µL of medium from each well were collected and 100 µL of pure medium were added. Then 10 µL of MTT solution […] (Sigma, St. Louis, MO, USA) were added in each well. Plate was incubated 4 h, after that 100 µL SDS-HCl were added to each well and plate was incubated at 37 °C 4–18 h. Optical density was measured at 570 nm and 630–690 nm. The activity of the substances was calculated as the ratio of the dead cells to general cells amount (ED50). Typicoside A1 [28] and cucumarioside A2-2 [11] were used as positive controls.

Another series relates to mouse spleenocytes. The series can be described thus: Cytotoxic activity (MTT) against mouse spleenocytes. Format: cell-based. As for the experimental part:
as §1, §2

A further series deals with mouse erythrocytes. In kind it is cell-based. The protocol:
The erythrocytes were washed thrice with 0.9% NaCl, centrifuged (450 g) on a centrifuge […] (Heraeus, Hanau, Germany) for 5 min followed by re-suspending in phosphate-buffered saline (PBS), pH 7.2-7.4. […] ED50 was calculated using SigmaPlot 3.02 software (Jandel Scientific, San Rafael, CA, USA). […] The erythrocyte suspension in phosphate-buffered saline, pH 7.2-7.4 (PBS) with 20 μL of the solvent without a tested compound was used as negative control.

In series [5] the test system is human colorectal adenocarcinoma DLD-1 cells. The series can be described thus: Cytotoxicity against DLD-1 cells (MTS assay). In kind it is cell-based. As for the experimental part: Human colorectal adenocarcinoma cells DLD-1 were cultured in RPMI-1640 medium. Culture media was supplemented with 10% fetal bovine serum (FBS) and penicillin—streptomycin solution. Cells were maintained in a sterile environment and kept in an incubator at 5% CO2 and 37 °C to promote growth. DLD-1 cells were sub-cultured every 3–4 days by their rinsing with phosphate buffered saline (PBS), adding trypsin to detach the cells from the tissue culture flask, and transferring 10–20% of the harvested cells to a new flask containing fresh growth media.
DLD-1 cells (1.0 × 10^4/well) were seeded in 96-well plates for 24 h at 37 °C in 5% CO2 incubator. The cells were treated with the compounds 1–9 at concentrations range from 0 to 100 µM for additional 24 h. Subsequently, cells were incubated with 15 µL MTS reagent for 3 h, and the absorbance of each well was measured at 490/630 nm using microplate reader “Power Wave XS” (Bio Tek, Winooski, VT, USA). All the experiments were repeated three times, and the mean absorbance values were calculated. The results are expressed as the percentage of inhibition that produced a reduction in absorbance by compound’s treatment compared to the non-treated cells (control).

The nature of series [6]: Cytotoxic activity (MTT) against the ascites form of mouse Ehrlich carcinoma cells. Format: cell-based. To be noted: mouse. As for the experimental part: as §1, §2
The nature of series [7]: Cytotoxic activity (MTT) against mouse spleenocytes. In kind it is cell-based. Conditions: CD-1, mouse. As for the experimental part:
as §1, §2

Take `CC(C)=CCC[C@](C)(O)[C@H]1CC[C@]2(C)[C@@H]1[C@H](O)C[C@@H]1[C@@]3(C)CC[C@H](O[C@@H]4O[C@H](CO)[C@@H](O)[C@H](O)[C@H]4O[C@@H]4O[C@H](CO)[C@@H](O)[C@H](O)[C@H]4O)C(C)(C)[C@@H]3CC[C@]12C` [ginsenoside Rg3]: the “Sensitization to γ-radiation (in words)” value in [1] and in series [2] was “sensitized” in each case. Moreover, in series [3], the “Efficacy of radiation therapy (in words)” value is “significantly enhanced the efficacy of radiation therapy”.

With `C=C(C)CCCC1(C)OC(=O)C23CCC4C(=CCC5C(C)(C)C(OC6OCC(OS(=O)(=O)[O-])C(O)C6OC6OC(C)C(OC7OC(CO)C(O)C(OC8OC(CO)C(O)C(OC)C8O)C7O)C(O)C6OC6OCC(O)C(O)C6O)CCC45C)C2(C)CC(=O)C13.[Na+]` (stereo not drawn) [Cucumarioside A2-2, reference compound], the IC50 came to 1390 ± 15 nM in series [4] and 1210 ± 20 nM with mouse spleenocytes (CD-1 mouse spleenocytes, MTT, incubated over night). For the same compound, the “Hemolytic Activity, ED50” value in the series on mouse erythrocytes (CD-1 mouse erythrocytes, 1 h at 37 °C, dose causing 50% of hemolysis) worked out at 0.82 ± 0.02 μM/mL.

For `CC1OC(OC2C(OC3CCC4(C)C5CCC67C(=O)OC(CC6(C)C5=CCC4C3(C)C)C7C3(C)CCC(C(C)(C)O)O3)OCC(OS(=O)(=O)O)C2O)C(O)C(O)C1O` [Compound 1, 3β-O-[β-D-quinovopyranosyl-(1→2)-4-O-sodium sulfate-β-D-xylopyranosyl]-9βH,20(S),24(S)-epoxy-25-hydroxylanosta-7-ene-18(16)-lactone], the “Cytotoxic effect against DLD-1 cells (in words)” value in [5] (0–100 µM, 24 h) was “did not possessed cytotoxic effect”. For the same compound, the IC50 in [5] (Homo sapiens, DLD-1, read-out: IC50 (50% reduction in cell viability), DLD-1 cells, 24 h, 0–100 µM) was above 100000 nM; in series [6], above 100000 nM; in series [7] it was above 100000 nM. For the same compound, the “Cytotoxic action against spleenocytes (in words)” value in the series with mouse spleenocytes (up to the ultimate investigated concentration of 100 μM) was “inactive”. Besides, the “Hemolytic action (in words)” value in the series with mouse erythrocytes (mouse erythrocytes) is “inactive”.

As a reminder, the IC50 is the concentration that inhibits the measured activity by half.

Source of the values: publication PMC5577610, “Nine New Triterpene Glycosides, Magnumosides A1–A4, B1, B2, C1, C2 and C4, from the Vietnamese Sea Cucumber Neothyonidium (=Massinium) magnum: Structures and Activities against Tumor Cells Independently and in Synergy with Radioactive Irradiation” (Marine Drugs, 2017).
